Values of other authors in patent US20080247957A1, “Advanced drug delivery strategy and platform for minimally-invasive treatment of liver cancer” (Drexel University, priority 2007, published 2008).

Settings: in the body

half life: less than 5 min
Compound: O=c1[nH]cc(F)c(=O)[nH]1 [5 fluorouracil]
